The text below walks through data of US12377095B2, “Use of ligustrazine nitrone derivatives in treatment and prevention of diabetic complication diseases” (QINGDAO HAILAN PHARMACEUTICALS CO., LTD., priority 2019, dated 2025).

The subject of experiment [1] is db/db mice. Briefly: HE histopathology of kidney tissue in db/db mice. It counts as in vivo, mouse. An excerpt:
(§1) db/db mice are congenital obese type 2 DKD mice with spontaneous mutations in the leptin receptor (Leptin receptor, Lepr) due to a point mutation in the leptin receptor gene GT located on chromosome 4. The course of polyphagia, polyuria, diabetes and hyperglycemia is similar to that of humans, and it is currently the most widely used type 2 spontaneous animal model of DKD. The db/db mice have a series of complications with the aggravation of diabetes. The main pathological changes of renal tissue are the expansion of the glomerular mesangial interstitium, the thickening of the glomerular basement membrane, and the excessive accumulation of extracellular matrix. However, the glomerular mesangium of db/db mice changes relatively slowly, and the glomerular mesangium will not be dissolved or nodular glomerulosclerosis, and there is no progressive renal insufficiency.
Six-week-old db/db mice were purchased, and start the administration after adaptive feeding for 1 week (i.e., 7-week-old). TBN is administered twice a day (fixed by starting from 9:00-10:00 am and 3:00-4:00 pm, with an interval of 6 hours), and the positive control drug Losartan was administered once a day (fixed at 9:00-10:00 am) for 6 weeks.
The HE dyeing process is as shown in Example 9.

Experiment [2] concerns diabetic neuropathy model rats. Briefly: Thermal radiation stimulation in diabetic neuropathy model rats. It counts as in vivo, rat. The conditions noted are these: TBN 30 mg/kg twice a day, 4 weeks of administration (8 weeks after STZ), P<0.05. The procedure:
(§2) Modeling method: STZ was weighed and transferred to a centrifuge tube, wrapped with aluminum foil, kept away from light, and stored at −20° C. STZ sodium citrate solution is prepared when it is in need to use. The rats were fasted without water for 12 hours before injection. After weighing, the rats were injected with 55 mg/kg STZ intraperitoneally (STZ needs to be injected quickly, and the injection was completed within 10 minutes), and then returned to the cage to ensure that the rats had sufficient drinking water for 24 hours. Rats were injected with an equal volume of citrate buffer (pH 4.5). Four weeks after STZ injection, blood was collected from the tail vein, and the rats with blood glucose less than 16.7 mmol/L were eliminated; the taillick threshold temperature was increased, and the mechanical withdrawal threshold (MWT) was decreased, as the standard of a successful DPN model.
The animals were randomly divided into 3 groups (n=7), namely the normal control group, the model group, and the TBN (30 mg/kg) group. The normal group and the model group were injected with an equal volume of normal saline, and TBN was administered twice a day (fixed at 9:00-10:00 am and 3:00-4:00 pm), continuously for 4 weeks. […]

A further experiment concerns EPO mRNA. As to the kind of experiment: EPO mRNA by RT-PCR in CoCl2-induced HepG2 cell hypoxia model. The conditions noted are these: 30 μM, 24 h, HepG2 cells, 50 μM CoCl2.
For the next experiment, the system named is STZ-induced SHR rats. Briefly: Serum EPO content in STZ-induced SHR rats. It counts as in vivo, rat. The conditions noted are these: TBN group (T60), 60 mg/kg.
Experiment [3] relates to db/db mice. Briefly: 24 h urine microalbumin in db/db mice. To be noted: TBN 10, 30, 60 mg/kg, end of 6 weeks; especially 30 and 60 mg/kg (P<0.001). It counts as in vivo, mouse.
Text: as §1, with “insufficiency. […]” for “insufficiency.”
db/db mice were tested for 24 h urine microalbumin in the 4th and 6th week after drug treatment. […] The absorbance value (OD value) was measured at 450 nm wavelength; the blank control hole was used for adjusting zero, the microalbuminuria standard concentration was used as the abscissa, the OD value as the ordinate, the standard curve regression equation was calculated, and on the basis of the regression equation and the sample's OD value, the concentration of the sample was determined.

The next experiment relates to STZ-induced DKD rats. Briefly: Kidney index of STZ-induced DKD rats. The experiment is classed as in vivo, rat. The conditions noted are these: after 6 weeks of administration. The procedure:
SD rats (200±10 g) were used as model animals, which were fasted for 12 h before injection. STZ was dissolved in citrate buffer at 1% concentration, and rats were fasted and intraperitoneally injected with 55 mg/kg STZ and placed in the cage, the rats being ensured with adequate water intake for 24 h. STZ injections need to be fast and complete within 10 minutes of injection. The normal control group was injected with an equal volume of pH 4.5 citric acid-sodium citrate buffer. The state of the animals (multiple drinking and polyuria) was observed. After 3 weeks of STZ injection, blood was collected from the tail vein, and fasting blood glucose ≥16.7 mmol/L was measured as the standard for diabetic nephropathy in rats.
DKD rats were randomly assigned to 6 groups and given with different drugs. After 6 weeks of administration, the experiment was terminated and the protective effect of the drug on DKD rats was observed.
After 6 weeks of administration, the kidney tissue was uniformly separated by an autoclave surgical instrument, and washed with normal saline. After the filter paper was blotted, the fine balance was weighed, and then stored in a refrigerator at −80° C. for use. Kidney index (relative to kidney weight) is kidney weight (mg)/body weight (g)[…].

The test system of experiment [4] is diabetic neuropathy model rats. Briefly: Mechanical pain threshold (von Frey) in diabetic neuropathy model rats. It counts as in vivo, rat. The conditions noted are these: TBN 30 mg/kg twice a day. The procedure: as §2
The animals were randomly divided into 3 groups (n=7), namely the normal control group, the model group, and the TBN (30 mg/kg) group. The normal group and the model group were injected with an equal volume of normal saline, and TBN was administered twice a day (fixed at 9:00-10:00 am and 3:00-4:00 pm), continuously for 4 weeks.
Experiment for detecting mechanical pain threshold: In a quiet environment, the rats were individually placed in a porous steel wire cage. […]

Regarding `Cc1nc(C)c(/C=[N+](\[O-])C(C)(C)C)nc1C` [TBN], in the experiment with db/db mice [1] (30 mg/kg and 60 mg/kg dose groups), the “degree of infiltration of kidney inflammatory cells vs db/db group” value is on record as “obviously improved”. Further, the “pathological structure of kidney injury (H&E)” value in the experiment with db/db mice [1] (TBN dose groups (10, 30, 60 mg/kg), in various degrees) is on record as “improvement”. Moreover, the “glomerular area (glomerular surface)” value in the experiment with db/db mice [1] (TBN treatment groups, dose-dependent, more significantly for 30 mg/kg and 60 mg/kg) is listed as “reduced”. Besides, the “pain threshold of heat stimulation (hindlimb lifting latency) vs model group” value in experiment [2] is given as “increase”. Further, the “expression of EPO mRNA” value in the experiment with EPO mRNA is reported as “significantly increase”. In the experiment with STZ-induced SHR rats, the “content of EPO in serum vs model group” value is on record as “significantly increased”. Also, the “24 h urine microalbumin production” value with db/db mice [3] is listed as “dose-dependently reduced”. Besides, the kidney index entry with STZ-induced DKD rats is “significantly reduced”. Moreover, the “mechanical pain threshold vs model group” value in experiment [4] (2 weeks after administration (6 weeks after STZ)) is on record as “no statistically significant difference”; in experiment [4] (4 weeks after administration (8 weeks after STZ), P<0.05), “increased”.
